Experiment [1] is described as follows: Inhibition of DNA supercoiling activity of Escherichia coli DNA gyrase.
The nature of experiment [2]: Inhibition of DNA decatenation activity of Escherichia coli DNA topoisomerase 4.
Experiment [3] has as its target DNA gyrase subunit A (Escherichia coli K-12, UniProt P0AES4, S83W). The experiment in a line: Inhibition of DNA supercoiling activity of Escherichia coli DNA gyrase gyrA S83W mutant.
Experiment [4] addresses DNA gyrase subunit A (Escherichia coli K-12, UniProt P0AES4, A67S). The experiment can be described thus: Inhibition of DNA supercoiling activity of Escherichia coli DNA gyrase gyrA A67S mutant.
For experiment [5], the target named is DNA gyrase subunit A (Escherichia coli K-12, UniProt P0AES4, G81C). The experiment can be described thus: Inhibition of DNA supercoiling activity of Escherichia coli DNA gyrase gyrA G81C mutant.
Experiment [6] deals with Escherichia coli. The experiment can be described thus: Selectivity ratio of IC50 for Escherichia coli DNA gyrase gyrA S83W mutant to IC50 for Escherichia coli wild-type DNA gyrase.
The subject of experiment [7] is Escherichia coli. The experiment can be described thus: Selectivity ratio of IC50 for Escherichia coli DNA gyrase gyrA G81C mutant to IC50 for Escherichia coli wild-type DNA gyrase.
The subject of experiment [8] is Escherichia coli. The experiment can be described thus: Selectivity ratio of IC50 for Escherichia coli DNA gyrase gyrA A67S mutant to IC50 for Escherichia coli wild-type DNA gyrase.
Experiment [9] concerns Escherichia coli. The experiment in a line: Ratio of CC3 for Escherichia coli DNA gyrase gyrA S83W mutant to CC3 for Escherichia coli wild-type DNA gyrase.
In experiment [10] the test system is Escherichia coli. The experiment can be described thus: Ratio of CC3 for Escherichia coli DNA gyrase gyrA A67S mutant to CC3 for Escherichia coli wild-type DNA gyrase.
The subject of experiment [11] is Escherichia coli. The experiment can be described thus: Ratio of CC3 for Escherichia coli DNA gyrase gyrA G81C mutant to CC3 for Escherichia coli wild-type DNA gyrase.
Experiment [12] deals with Escherichia coli. The experiment can be described thus: Antimicrobial activity against Escherichia coli. In kind it is functional.
Experiment [13] addresses DNA gyrase (Staphylococcus aureus, UniProt P0A0K8+P20831). The experiment can be described thus: Inhibition of DNA supercoiling activity of Staphylococcus aureus DNA gyrase. In kind it is protein-complex assay.
A short description of experiment [14]: Inhibition of DNA decatenation activity of Staphylococcus aureus DNA topoisomerase 4.
Experiment [15] has as its system Escherichia coli. The experiment in a line: Selectivity index, ratio of IC50 for Escherichia coli Topoisomerase 4 to IC50 for Escherichia coli DNA gyrase.
The subject of experiment [16] is Staphylococcus aureus. The experiment can be described thus: Selectivity index, ratio of IC50 for Staphylococcus aureus Topoisomerase 4 to IC50 for Staphylococcus aureus DNA gyrase.

Converted amounts (≈) assume the structure as drawn.

The values below come from ChEMBL document CHEMBL1275599, “Comparison of in vitro activities of fluoroquinolone-like 2,4- and 1,3-diones” (Antimicrob Agents Chemother, 2010).

Usually IC50 stands for the concentration needed to halve the response being measured. Lower therefore signals higher potency. Broadly, the MIC is the lowest concentration found to suppress growth. High values mean a less susceptible organism, low ones a more susceptible organism.

As for `CC[C@@H]1CCN(c2c(F)cc3c(=O)c(C(=O)O)cn(C4CC4)c3c2OC)C1`, the IC50 in experiment [1] was 0.16 µM; in experiment [2] it was 1.7 µM; in [3] it was 1.4 µM; in experiment [4], 0.12 µM; in experiment [5] it was 1.2 µM; in experiment [13] it was 1.1 µM. The compound further registered an IC50 in [14] of 0.5 µM. The Ratio IC50 in experiment [6] worked out at 8.8; in [7], 7.5; in experiment [8], 0.75; in experiment [15], 10.6; in experiment [16], 2.2. For the same compound, the Ratio in [9] worked out at 6.5; in [10] it was 1.5; in experiment [11] it was 13. Besides, in [12], 0.004 mg/L (≈ 0.0107 µM) was the least that counted as inhibitory (MIC).
Consider `CC[C@@H]1CCN(c2c(F)cn3c(=O)n(N)c(=O)c(C4CC4)c3c2OC)C1`, for which the IC50 in [1] was determined as 11 µM; in experiment [2] it was 163 µM; in [3] it was 67 µM; in experiment [4], 19 µM; in experiment [5], 31 µM; in experiment [13] it was 36.5 µM. Further, the midpoint of inhibition in experiment [14], the IC50, lay at 48 µM. Further, the Ratio IC50 amounted to 6.1 in [6]; 2.8 in experiment [7]; 1.7 in [8]; 14.8 in experiment [15]; 1.3 in [16]. For the same compound, the values for the Ratio in [9], in [10] and in experiment [11] were 3.4, 1.5 and 2.3, respectively.
For `O=C(O)c1cn(C2CC2)c2cc(N3CCNCC3)c(F)cc2c1=O` [CIPROFLOXACIN], the IC50 worked out at 0.45 µM in [1], 15.9 µM in [2] and 8.8 µM in experiment [14].
`CC[C@@H]1CCN(c2c(F)cc3c(=O)n(N)c(=O)n(C4CC4)c3c2OC)C1`: the IC50 in experiment [1] is 2.8 µM; in [2], 16 µM; in experiment [3], 5.9 µM; in [4], 2.4 µM; in [5], 4.3 µM; in experiment [13] it was 2.3 µM. The compound also displayed an IC50 in experiment [14] of 5.5 µM. In addition, the Ratio IC50 was determined as 2.1 in [6]; 1.5 in experiment [7]; 0.86 in experiment [8]; 5.7 in [15]; 2.4 in experiment [16]. Also, the figures for the Ratio in experiment [9], in experiment [10] and in experiment [11] were 2.1, 1.7 and 2.3, respectively. This compound also yielded an MIC in experiment [12] of 2.5 mg/L (≈ 6.9 µM).
As to `CC[C@@H]1CCN(c2c(F)cc3c(=O)n(N)c(=O)n(C4CC4)c3c2C)C1`, the IC50 worked out at 0.95 µM in [1]; 6 µM in [2]; 3.8 µM in experiment [3]; 1.2 µM in experiment [4]; 1.7 µM in experiment [5]; 1.6 µM in experiment [13]. Further, in experiment [14], the IC50 amounted to 0.88 µM. Besides, the Ratio IC50 stood at 4 in [6]; 1.8 in [7]; 1.3 in [8]; 6.3 in [15]; 1.8 in experiment [16]. For the same compound, the Ratio in [9] was 5.6; in experiment [10], 2.5; in [11], 3.1.
